Data published in patent US9050301B2, “Pharmaceutical composition for treatment of corneal endothelial wounds containing angiogenin” (Chung-Ang University Industry-Academy Cooperation Foundation, priority 2013, dated 2015).

Legend:
[1] = test system: human corneal endothelial cells; test: In vitro scratch wound healing of cultured human corneal endothelial cells; assay type: cell-based; settings: for Wound healing index compared with the control group: 6 and 24 hours, angiogenin 5 μg/ml, Y-27632 10 μM
Procedure: A corneal endothelial tissue segment obtained from remaining corneal portions other than the central 8 mm corneal portion in cadaveric cornea donated for transplantation and a corneal endothelial tissue segment of a normal rabbit were cultured. Then, each of the corneal tissues was divided into 6 pieces and washed by shaking 6 times in a petri dish to which 7 ml of 5% penicillin/streptomycin (P/S) was added. Then, the washed tissues were each transferred to a 6-well dish such that the endothelial layer was facing down, and the tissues were semi-dried until the dishes were slightly drained. […]
Experiments have been carried to identify angiogenin effects on migration and proliferation of the corneal endothelial cells. […] At every 0 hour, 12 hours, 24 hours, and 48 hours, digital images of the remaining wounded areas were obtained at 40× magnification of the optical microscope, and measured in pixels by using the Image J software. […] At every 6 hours and 24 hours, the wounded areas were measured by using the Image J software. The ratio of initial wounded area versus recovered area was defined as wound healing index, which is calculated as shown below. […]
Experiments have been carried to identify optimal concentration of angiogenin to improve in vitro migration and proliferation improvement of the cultured human corneal endothelial cells. […] At every 0 hour, 12 hours, 24 hours, and 48 hours, the wounded areas were measured by using the Image J software. […]

[2] = test system: rabbit corneal endothelium; test: Corneal transparency grade by slit-lamp after trans-corneal freezing damage; assay type: in vivo; settings: mean ± SE
Procedure: 30 eyeballs of 15 healthy white New Zealand rabbits weighing about 2.0 kg to about 3.0 kg without external opacification were anesthetized by intramuscular injection with 12.5 mg/kg of tiletamine/zolazepam (Zoletil®, VirbacLab, France) and 12.5 mg/kg of zylazine (Rompun®, BayerKorea, Korea). Afterwards, 0.5% povidone-iodine was used for disinfection of the whole range of experimental sight. Referring to FIG. 1, an 8 mm-diameter stainless steel rod as a probe was immersed in liquid nitrogen for 3 minutes, removed therefrom once the temperature of the liquid nitrogen reached −196° C., and brought into contact to the central cornea for 15 seconds. Then, each of the eyeballs was washed with 10 cc of 0.9% saline solution. In order to prevent the occurrence of corneal infection, the rabbit corneas were given instillation of Levofloxacin (Cravit®, Santen, Japan) three times a day for 3 days after the damage was induced.
3 groups consisting of 10 eyeballs given instillation of angiogenin (200 μg/mL), 7 eyeballs given Y-27632 (10 mM) inhibitor of Rho-associated coiled-coil kinase (ROCK) pathway, and 7 eyeballs as a control group given phosphate-buffered solution (PBS) were each subjected to 50 μl of instillation at a time, and more particularly, 6 times a day for the first 2 days, and then, 4 times a day for the following 2 days, starting immediately after inducing freeze-damages to the trans-corneal endothelium. That is, the instillation was performed 20 times in total for 4 days.
Then, the groups were subjected to the evaluation of corneal opacity and corneal edema by using a digital camera (VLUUNV100HD, Samsung, Suwon, Korea) to obtain images taken in a diagonal direction.
Experiments have been carried out to identify effects of angiogenin-induced PI3k-Akt signaling pathway in terms of recovering the corneal transparency after inducing damages to the corneal endothelium. After inducing freeze-damages to the corneal endothelium, 4 eyeballs out of 30 rabbit eyeballs in total were subjected to 50 μl of each of 200 μg/mL of angiogenin and 200 μM of PI3k-Akt pathway inhibitor, LY294002 instillation at a time every 3 minutes, and more particularly, 6 times a day for the first 2 days, and then, 4 times a day for the following one day. That is, the instillation was performed 16 times in total for 3 days.

[3] = 48 h after freeze damage, instillation 50 μl (angiogenin 200 μg/mL, Y-27632 10 mM), grade 0 transparent to +4.0 turbid (Table 1)
[4] = 72 h after freeze damage, instillation 50 μl (angiogenin 200 μg/mL, Y-27632 10 mM, LY294002 200 μM), grade 0 to +4.0 (Table 1)
[5] = 144 h after freeze damage, instillation 50 μl (angiogenin 200 μg/mL, Y-27632 10 mM), grade 0 to +4.0 (Table 1)
[6] = 192 h after freeze damage, instillation 50 μl (angiogenin 200 μg/mL, Y-27632 10 mM), grade 0 to +4.0 (Table 1)

Molecule | Wound healing index compared with the control group [1] | Grade of corneal transparency (by using slit-lamp biomicroscope) [2, 3] | Grade of corneal transparency (by using slit-lamp biomicroscope) [2, 4] | Grade of corneal transparency (by using slit-lamp biomicroscope) [2, 5] | Grade of corneal transparency (by using slit-lamp biomicroscope) [2, 6] | Angiogenin concentration giving the highest wound healing index ([1]; 1, 2, 5 and 10 μg/ml tested, 0, 12, 24, 48 hours)
C[C@@H](N)[C@H]1CC[C@H](C(=O)Nc2ccncc2)CC1 [Y-27632, reference compound] | high wound healing index | 4.00 ± 0 | 3.00 ± 0.41 | 1.38 ± 0.38 | 1.38 ± 0.38 | 
Angiogenin: 14.4-kDa single chain protein of 123 amino acids, secreted protein capable of inducing angiogenesis | high wound healing index | 4.00 ± 0 | 2.65 ± 0.37 | 1.29 ± 0.26 | 1.29 ± 0.26 | 5 µg/mL
